One assay concerns the target Cytochrome P450 2C19 (Homo sapiens, UniProt P33261). In words: qHTS Assay for Inhibitors and Substrates of Cytochrome P450 2C19. [Related pubchem assays: 410 ]. The class given is ADME. Conditions: read-out: Potency. Background: qHTS replaces the single test concentration by a dilution series.
The next assay has as its target Cytochrome P450 2D6 (Homo sapiens, UniProt P10635). The experiment in a line: qHTS Assay for Inhibitors and Substrates of Cytochrome P450 2D6. [Related pubchem assays: 410 ]. In kind it is ADME. Conditions: read-out: Potency.
For a further assay, the target named is Cytochrome P450 2C9 (Homo sapiens, UniProt P11712). The settings on record: Potency.
Sequence of Cytochrome P450 2C9 (P11712 whole entry): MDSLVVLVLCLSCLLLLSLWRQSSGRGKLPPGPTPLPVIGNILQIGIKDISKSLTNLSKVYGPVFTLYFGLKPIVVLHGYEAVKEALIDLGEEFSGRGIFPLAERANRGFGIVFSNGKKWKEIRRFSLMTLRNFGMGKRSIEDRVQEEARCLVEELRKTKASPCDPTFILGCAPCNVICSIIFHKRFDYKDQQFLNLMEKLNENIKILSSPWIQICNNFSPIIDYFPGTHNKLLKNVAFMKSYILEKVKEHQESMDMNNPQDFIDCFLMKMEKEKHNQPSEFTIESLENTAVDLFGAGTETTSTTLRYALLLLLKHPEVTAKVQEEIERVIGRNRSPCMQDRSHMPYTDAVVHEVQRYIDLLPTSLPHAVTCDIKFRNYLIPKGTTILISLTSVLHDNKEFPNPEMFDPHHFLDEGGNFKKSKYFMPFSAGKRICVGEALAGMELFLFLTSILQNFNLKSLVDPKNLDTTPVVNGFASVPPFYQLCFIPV
The nature of assay [1]: Luminescence Cell-Based Dose Confirmation HTS to Identify Inhibitors of Polyadenylation. The class given is functional.
A short description of assay [2]: P. falciparum Dd2 growth inhibitors, dose response, SYBR Green, cherry-picked samples (AID 1159567). In kind it is functional, cell-based.
The nature of assay [3]: Dd2 parasite growth inhibition in erythrocytes – SYBR Green, dry powder samples, set 9, dose response (AID 1159568). In kind it is functional, cell-based.
A short description of assay [4]: growth inhibition of PfATP4-mutant resistant parasites – NITD609-resistant line, SYBR Green, dry powder, dose response (AID 1159571).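 Note: parasites synchronized at ring stage by sorbitol before testing.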 The class given is functional, cell-based.
The nature of assay [5]: Plasmodium falciparum Dd2 Sybr green parasite growth Measured in Cell-Based and Microorganism Combination System Using Plate Reader - 2153-01_Inhibitor_Dose_DryPowder_Activity_Set3. In kind it is functional.
Assay [6] can be described thus: growth inhibition of yeast DHODH-expressing 3D7 parasites – SYBR Green, dry powder samples, dose response (AID 1159570).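 Note: parasite growth measured after 72 hours of compound exposure.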 In kind it is functional, cell-based.
Assay [7] can be described thus: Dd2 malaria parasite growth inhibition potency – SYBR Green, dry powder samples, dose response (AID 1159566).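 Note: potency for growth inhibition with lower SYBR green DNA signal.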 The class given is functional, cell-based.
Assay [8] in a line: toxicity to human HepG2 hepatoma cells – cell-based, plate reader, dry powder samples, cytotoxicity control, dose response (AID 1159569).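 Note: inhibitor potency with signal falling toward the positive control level.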 The class given is functional.
Assay [9] is described as follows: cytotoxicity toward Colo320 cells – cell-based, CellTiter-Glo luminescence, IC50, dose response (AID 1117334). The class given is functional. The settings on record: COLO 320. Background: ATP-based viability assays read luminescence as a measure of living cells.
A short description of assay [10]: cytotoxicity toward HCT116 cells – cell-based, CellTiter-Glo luminescence, IC50, dose response (AID 1117332). In kind it is functional. The settings on record: HCT-116.
A short description of assay [11]: Reduced DLD-1 viability, concentration-response, CellTiter-Glo luminescence (AID 1117352). In kind it is functional.
Assay [12] in a line: cytotoxicity toward HT-29 cells – cell-based, CellTiter-Glo luminescence, IC50, dose response (AID 1117330). In kind it is functional.
Assay [13] is described as follows: RKO cell viability reduction, dose response, CellTiter-Glo luminescence (AID 1117322). In kind it is functional.
Assay [14] in a line: HEK-293T viability loss after treatment – luminescence, T-cell screen hits, cytotoxicity control for TCR NF-kB inhibitor project, dose response (AID 489026).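 Note: cells exposed to compound about 14 hours before the viability readout.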 The class given is functional, cell-based.
The nature of assay [15]: CellTiter-Glo luminescence survival assay, SW480 colon tumor line, concentration-response curve, half-maximal inhibitory concentration (AID 1117338). The class given is functional.
A short description of assay [16]: SNU-C1 cell viability reduction, dose response, CellTiter-Glo luminescence (AID 1117323). In kind it is functional, cell-based.

Active and inactive are the calls of the source.

Sequence of Cytochrome P450 2C19 (P33261 whole entry): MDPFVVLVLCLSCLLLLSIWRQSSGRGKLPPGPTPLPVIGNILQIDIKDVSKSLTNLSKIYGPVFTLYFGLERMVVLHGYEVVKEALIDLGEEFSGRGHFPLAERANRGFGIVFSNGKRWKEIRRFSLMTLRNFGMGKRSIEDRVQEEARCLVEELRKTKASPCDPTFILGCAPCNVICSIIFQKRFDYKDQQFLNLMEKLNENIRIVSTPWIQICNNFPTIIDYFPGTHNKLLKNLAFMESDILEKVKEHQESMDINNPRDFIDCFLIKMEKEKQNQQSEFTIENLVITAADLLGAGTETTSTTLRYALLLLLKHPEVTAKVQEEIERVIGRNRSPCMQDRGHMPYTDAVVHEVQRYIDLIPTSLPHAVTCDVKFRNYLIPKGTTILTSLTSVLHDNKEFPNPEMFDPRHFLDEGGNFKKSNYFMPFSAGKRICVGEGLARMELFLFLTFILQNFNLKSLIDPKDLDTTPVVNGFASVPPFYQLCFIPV
Sequence of Cytochrome P450 2D6 (P10635 whole entry): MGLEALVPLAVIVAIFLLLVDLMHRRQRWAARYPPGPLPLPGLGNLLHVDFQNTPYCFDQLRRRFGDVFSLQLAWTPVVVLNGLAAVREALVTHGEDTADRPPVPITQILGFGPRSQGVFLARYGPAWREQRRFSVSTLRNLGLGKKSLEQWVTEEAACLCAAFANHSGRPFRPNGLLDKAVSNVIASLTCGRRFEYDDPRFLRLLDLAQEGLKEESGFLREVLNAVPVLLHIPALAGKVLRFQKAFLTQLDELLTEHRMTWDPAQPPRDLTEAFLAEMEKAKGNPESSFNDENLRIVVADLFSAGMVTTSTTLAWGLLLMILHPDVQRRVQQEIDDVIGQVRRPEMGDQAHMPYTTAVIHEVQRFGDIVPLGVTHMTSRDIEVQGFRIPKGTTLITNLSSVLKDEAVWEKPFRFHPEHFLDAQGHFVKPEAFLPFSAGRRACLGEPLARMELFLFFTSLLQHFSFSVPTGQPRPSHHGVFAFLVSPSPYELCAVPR

On to `COC(=O)NC(c1ccco1)C(C(C)=O)C(=O)OC` (centres undefined), for which the AC50 is 6.31 µM (inconclusive) on Cytochrome P450 2C19, 3.16 µM (inconclusive) at Cytochrome P450 2D6 and 1 µM (inconclusive) at Cytochrome P450 2C9.

Consider `CCCCCCCCCCCC(=O)N/N=C/c1ccco1`, for which the EC50 in assay [1] is > 120 µM (not active).

Turning to `CCCNC(=O)Nc1ccc2c(c1)OC[C@@H](C)N(Cc1ccccc1)C[C@@H](C)[C@H](OC)CN(C)C2=O`, the AC50 is 1.43 µM (active) in assay [2]; 0.307 µM (active) in assay [3]; 0.828 µM (active) in assay [4]; 0.826 µM (active) in assay [5]; 3.25 µM (active) in assay [6]; 0.154 µM (active) in assay [7].

On to `CCCNC(=O)N1[C@H](C#N)[C@H](c2ccc(-c3cccnc3)cc2)[C@H]1CO`, for which the AC50 in [2] is 1.49 µM (active); in [4], 1.16 µM (active); in assay [8] it was > 100 µM (inactive); in assay [5] it was 0.927 µM (active); in assay [6], > 39 µM (inactive); in [7], 0.822 µM (active).

Turning to `Nc1ncn([C@@H]2O[C@H](CO)[C@@H](O)[C@H]2O)c(=O)n1` [AZACITIDINE], the IC50 in [9] is 12.3 µM (inactive); in assay [10] it was 3.04 µM (active); in assay [11], 2.55 µM (active); in assay [12], 12.5 µM (inactive); in assay [13] it was 7.4 µM (inactive); in [14] it was > 80 µM (inactive). For the same compound, the IC50 was > 6.67 µM (inactive) in [15] and 1.8 µM (active) in assay [16].

As usually defined, the EC50 is the concentration needed to bring the measured effect to its halfway point. Low values mean a more potent agent, high ones a less potent agent. Broadly, the IC50 is the midpoint of a concentration-inhibition curve.

Source of the values: ChEMBL document CHEMBL1201862, “PubChem BioAssay data set” (2004).
